Columns and labels:
[1] = Cytotoxicity against mouse BV-2 cells assessed as cell viability at 1 uM by MTT assay relative to control; type: toxicity, cell-based; conditions: read-out: Activity
[2] = Cytotoxicity against mouse BV-2 cells assessed as cell viability at 10 uM by MTT assay relative to control; type: toxicity, cell-based; conditions: read-out: Activity
[3] = system: BV-2; assay: Antiinflammatory activity in LPS induced mouse BV-2 cells assessed as NO production at 1 uM by Griess reagent based assay relative to control
[4] = system: BV-2; assay: Antiinflammatory activity in LPS induced mouse BV-2 cells assessed as NO production at 10 uM by Griess reagent based assay relative to control

SMILES | viability at 1 µM [1] [%] | viability at 10 µM [2] [%] | level, % of control at 1 µM [3] [%] | level, % of control at 10 µM [4] [%]
COc1c2n(cc(C(=O)Nc3cccc(-c4cn(-c5cccc(C(F)(F)F)c5)nn4)c3)c1=O)C[C@H]1OC[C@H](C)N1C2=O | 90.7 | 43.6 | 104 | 78.4
COc1c2n(cc(C(=O)Nc3ccccc3-c3cn(-c4ccc(C(F)(F)F)cc4)nn3)c1=O)C[C@@H]1OCC[C@@H](C)N1C2=O | 104 | 96.3 | 81 | 84.7
COc1c2n(cc(C(=O)Nc3cccc(-c4cn(-c5ccccc5Cl)nn4)c3)c1=O)C[C@H]1OC[C@H](C)N1C2=O | 90.7 | 43.6 | 106 | 59.4
COc1ccccc1-n1cc(-c2ccc(NC(=O)c3cn4c(c(OC)c3=O)C(=O)N3[C@H](C)CCO[C@H]3C4)cc2)nn1 | 108 | 81.6 | 108 | 107
COc1c2n(cc(C(=O)Nc3cccc(-c4cn(-c5c(C)cc(C)cc5C)nn4)c3)c1=O)C[C@H]1OC[C@H](C)N1C2=O | 94.6 | 49.3 | 116 | 89.6
COc1c2n(cc(C(=O)Nc3cccc(-c4cn(-c5ccc(F)cc5)nn4)c3)c1=O)C[C@@H]1OCC[C@@H](C)N1C2=O | 111 | 69.2 | 76.6 | 77
COc1c2n(cc(C(=O)Nc3ccc(-c4cn(-c5ccccc5I)nn4)cc3)c1=O)C[C@@H]1OCC[C@@H](C)N1C2=O | 110 | 98.2 | 98.2 | 106
COc1c2n(cc(C(=O)Nc3cccc(-c4cn(-c5ccccc5F)nn4)c3)c1=O)C[C@H]1OC[C@H](C)N1C2=O | 91.9 | 63.8 | 97.9 | 88.7
COc1c2n(cc(C(=O)Nc3ccc(-c4cn(-c5ccccc5)nn4)cc3)c1=O)C[C@@H]1OCC[C@@H](C)N1C2=O | 104 | 70.2 | 88.8 | 91.4
COc1c2n(cc(C(=O)Nc3cccc(-c4cn(-c5cc(C(F)(F)F)ccc5C(F)(F)F)nn4)c3)c1=O)C[C@@H]1OCC[C@@H](C)N1C2=O | 104 | 42 | 80.8 | 43.6
C[C@@H]1CCO[C@H]2Cn3cc(C(=O)NCc4ccc(F)cc4F)c(=O)c(O)c3C(=O)N12 [DOLUTEGRAVIR] | 97.5 | 77.6 | 96 | 51.2
CCc1ccccc1-n1cc(-c2ccc(NC(=O)c3cn4c(c(OC)c3=O)C(=O)N3[C@H](C)CCO[C@H]3C4)cc2)nn1 | 110 | 123 | 118 | 60.2
COc1c2n(cc(C(=O)Nc3ccccc3-c3cn(-c4ccccc4I)nn3)c1=O)C[C@@H]1OCC[C@@H](C)N1C2=O | 96.7 | 65.8 | 107 | 56.3
COc1c2n(cc(C(=O)Nc3ccc(-c4cn(-c5ccc(F)cc5)nn4)cc3)c1=O)C[C@@H]1OCC[C@@H](C)N1C2=O | 103 | 73.3 | 91.9 | 82.1
COc1c2n(cc(C(=O)Nc3cccc(-c4cn(-c5ccccc5)nn4)c3)c1=O)C[C@@H]1OCC[C@@H](C)N1C2=O | 104 | 62.3 | 78.6 | 77.3
C[C@@H]1C[C@H]2[C@@H]3CCC4=CC(=O)C=C[C@]4(C)[C@@]3(F)[C@@H](O)C[C@]2(C)[C@@]1(O)C(=O)CO [DEXAMETHASONE] | – | – | – | 65

SMILES | viability at 1 µM [1] [%] | viability at 10 µM [2] [%] | level, % of control at 1 µM [3] [%] | level, % of control at 10 µM [4] [%]
COc1c2n(cc(C(=O)Nc3cccc(-c4cn(-c5ccccc5C(F)(F)F)nn4)c3)c1=O)C[C@H]1OC[C@H](C)N1C2=O | 97.4 | 42.9 | 103 | 82.3
COc1c2n(cc(C(=O)Nc3cccc(-c4cn(-c5cccc(C(F)(F)F)c5)nn4)c3)c1=O)C[C@@H]1OCC[C@@H](C)N1C2=O | 47.1 | 16.2 | 99.2 | 2.3
COc1c2n(cc(C(=O)Nc3ccc(-c4cn(-c5ccccc5F)nn4)cc3)c1=O)C[C@@H]1OCC[C@@H](C)N1C2=O | 101 | 83 | 98.5 | 87.2
CCc1ccccc1-n1cc(-c2cccc(NC(=O)c3cn4c(c(OC)c3=O)C(=O)N3[C@@H](C)CO[C@@H]3C4)c2)nn1 | 99.3 | 46.1 | 107 | 102
COc1c2n(cc(C(=O)Nc3ccc(-c4cn(-c5cccc(C(F)(F)F)c5)nn4)cc3)c1=O)C[C@@H]1OCC[C@@H](C)N1C2=O | 105 | 73.8 | 96.8 | 90.5
COc1c2n(cc(C(=O)Nc3ccc(-c4cn(-c5ccccc5Cl)nn4)cc3)c1=O)C[C@@H]1OCC[C@@H](C)N1C2=O | 100 | 102 | 98.8 | 79.6
CCc1ccccc1-n1cc(-c2ccccc2NC(=O)c2cn3c(c(OC)c2=O)C(=O)N2[C@H](C)CCO[C@H]2C3)nn1 | 111 | 94.7 | 86.7 | 76.3
COc1c2n(cc(C(=O)Nc3cccc(-c4cn(-c5ccccc5F)nn4)c3)c1=O)C[C@@H]1OCC[C@@H](C)N1C2=O | 103 | 68.6 | 91.7 | 53.7
COc1ccccc1-n1cc(-c2ccccc2NC(=O)c2cn3c(c(OC)c2=O)C(=O)N2[C@H](C)CCO[C@H]2C3)nn1 | 102 | 93.5 | 87.1 | 70.3
COc1c2n(cc(C(=O)Nc3ccc(-c4cn(-c5cc(C(F)(F)F)ccc5C(F)(F)F)nn4)cc3)c1=O)C[C@@H]1OCC[C@@H](C)N1C2=O | 108 | 109 | 83 | 69
COc1c2n(cc(C(=O)Nc3ccccc3-c3cn(-c4cc(C(F)(F)F)cc(C(F)(F)F)c4)nn3)c1=O)C[C@@H]1OCC[C@@H](C)N1C2=O | 104 | 112 | 86.6 | 73
COc1c2n(cc(C(=O)Nc3ccccc3-c3cn(-c4ccccc4F)nn3)c1=O)C[C@@H]1OCC[C@@H](C)N1C2=O | 100 | 98.5 | 86.8 | 78.7
COc1c2n(cc(C(=O)Nc3ccc(-c4cn(-c5c(C)cc(C)cc5C)nn4)cc3)c1=O)C[C@@H]1OCC[C@@H](C)N1C2=O | 106 | 114 | 98.9 | 78.6
COc1c2n(cc(C(=O)Nc3cccc(-c4cn(-c5cc(C(F)(F)F)cc(C(F)(F)F)c5)nn4)c3)c1=O)C[C@H]1OC[C@H](C)N1C2=O | 97.1 | 69.6 | 114 | 97.9
COc1c2n(cc(C(=O)Nc3cccc(-c4cn(-c5ccc(C(F)(F)F)cc5)nn4)c3)c1=O)C[C@@H]1OCC[C@@H](C)N1C2=O | 71.5 | 56.3 | 83.7 | 48.3
COc1c2n(cc(C(=O)Nc3cccc(-c4cn(-c5ccccc5C(F)(F)F)nn4)c3)c1=O)C[C@@H]1OCC[C@@H](C)N1C2=O | 60.6 | 22.8 | 91.5 | 3.88
